From patent publication US9657002B2, “Oxindole derivatives carrying an oxetane substituent and use thereof for treating vassopressin-related diseases” (AbbVie Deutschland GmbH & Co. KG, priority 2013, dated 2017)

Key:
[1] = molecular target: human vasopressin V1a receptor (Homo sapiens, UniProt P37288); assay: Vasopressin V1a receptor binding assay; conditions: selectivity quotient, human V1a vs human V1b
[2] = molecular target: T1, human vasopressin V1b receptor (Homo sapiens, UniProt P47901); assay: biochemical
T1 sequence (P47901 1-424): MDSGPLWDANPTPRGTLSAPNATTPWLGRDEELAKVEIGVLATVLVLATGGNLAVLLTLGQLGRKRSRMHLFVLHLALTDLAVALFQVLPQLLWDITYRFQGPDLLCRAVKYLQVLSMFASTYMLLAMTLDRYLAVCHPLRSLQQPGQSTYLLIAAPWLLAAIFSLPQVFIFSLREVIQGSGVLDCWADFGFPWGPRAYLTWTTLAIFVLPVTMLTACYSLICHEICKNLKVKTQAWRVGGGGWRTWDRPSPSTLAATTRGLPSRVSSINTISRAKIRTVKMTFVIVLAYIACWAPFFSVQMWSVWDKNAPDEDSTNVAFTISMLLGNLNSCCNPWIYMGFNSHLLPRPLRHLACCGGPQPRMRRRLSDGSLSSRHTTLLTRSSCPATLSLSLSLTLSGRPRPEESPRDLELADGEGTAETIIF

human vasopressin V1a receptor, sequence (P37288 whole entry): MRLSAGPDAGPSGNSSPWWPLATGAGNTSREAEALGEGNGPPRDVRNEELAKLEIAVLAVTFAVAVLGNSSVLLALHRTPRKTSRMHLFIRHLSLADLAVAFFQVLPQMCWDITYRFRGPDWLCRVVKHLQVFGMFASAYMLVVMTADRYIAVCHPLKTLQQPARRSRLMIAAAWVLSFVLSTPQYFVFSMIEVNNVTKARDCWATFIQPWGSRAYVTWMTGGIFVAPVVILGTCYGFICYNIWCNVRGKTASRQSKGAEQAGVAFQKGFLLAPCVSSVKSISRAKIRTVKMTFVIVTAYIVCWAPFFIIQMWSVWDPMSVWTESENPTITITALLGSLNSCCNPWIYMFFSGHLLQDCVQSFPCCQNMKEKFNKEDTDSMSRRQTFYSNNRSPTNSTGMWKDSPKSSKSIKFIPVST

Ki(h-V1a)/Ki(h-V1b) [1] | Ki [2] [nM] | SMILES
+++ (>75) | 10 to 100 | CCOc1ncccc1[C@]1(NC(=O)N2CC3CC2CN3C2CCN(C3COC3)CC2)C(=O)N(S(=O)(=O)c2ccc(OC)cc2OC)c2ccc(C#N)cc21 (stereo partly drawn) [Example 38, N-[(3S)-5-cyano-1-(2,4-dimethoxyphenyl)sulfonyl-3-(2-ethoxy-3-pyridyl)-2-oxo-indolin-3-yl]-5-[1-(oxetan-3-yl)-4-piperidyl]-2,5-diazabicyclo[2.2.1]heptane-2-carboxamide]
+++ (>75) | 1 to 10 | COc1ccc(S(=O)(=O)N2C(=O)[C@@](NC(=O)N3CCC(C4CCN(C5COC5)CC4)CC3)(c3cccnc3OC)c3cc(C#N)ccc32)cc1 [Example 36, N-[(3S)-5-cyano-1-(4-methoxyphenyl)sulfonyl-3-(2-methoxy-3-pyridyl)-2-oxo-indolin-3-yl]-4-[1-(oxetan-3-yl)-4-piperidyl]piperidine-1-carboxamide]
+++ (>75) | 10 to 100 | COc1ccc(S(=O)(=O)N2C(=O)[C@@](NC(=O)N3CCC(N4CCN(C5COC5)CC4)CC3)(c3cccnc3OC)c3cc(C#N)ccc32)c(OC)c1 [Example 31, N-[(3S)-5-cyano-1-(2,4-dimethoxyphenyl)sulfonyl-3-(2-methoxy-3-pyridyl)-2-oxo-indolin-3-yl]-4-[4-(oxetan-3-yl)piperazin-1-yl]piperidine-1-carboxamide]
+ (10-<25) | 10 to 100 | COc1ncccc1[C@]1(NC(=O)N2CCN(C3CCN(C4COC4)CC3)CC2)C(=O)N(S(=O)(=O)c2ccc(C#N)cc2)c2ccc(C#N)cc21 [Example 43, N-[(3S)-5-cyano-1-(4-cyanophenyl)sulfonyl-3-(2-methoxy-3-pyridyl)-2-oxo-indolin-3-yl]-4-[1-(oxetan-3-yl)-4-piperidyl]piperazine-1-carboxamide]
+++ (>75) | 1 to 10 | COc1cc(F)ccc1S(=O)(=O)N1C(=O)[C@@](NC(=O)N2CCN(C3CCN(C4COC4)CC3)CC2)(c2cccnc2OC)c2cc(C#N)ccc21 [Example 30, N-[(3S)-5-cyano-1-(4-fluoro-2-methoxy-phenyl)sulfonyl-3-(2-methoxy-3-pyridyl)-2-oxo-indolin-3-yl]-4-[1-(oxetan-3-yl)-4-piperidyl]piperazine-1-carboxamide]
+++ (>75) | 1 to 10 | COc1ccccc1S(=O)(=O)N1C(=O)[C@@](NC(=O)N2CCC(C3CCN(C4COC4)CC3)CC2)(c2cccnc2OC)c2cc(C#N)ccc21 [Example 49, (S)—N-(5-cyano-1-((2-methoxyphenyl)sulfonyl)-3-(2-methoxypyridin-3-yl)-2-oxoindolin-3-yl)-1′-(oxetan-3-yl)-[4,4′-bipiperidine]-1-carboxamide]
++ (25-75) | 10 to 100 | COc1ncccc1[C@]1(NC(=O)N2CCN(C3CCN(C4COC4)CC3)CC2)C(=O)N(S(=O)(=O)c2ccc(C#N)cc2F)c2ccc(C#N)cc21 [Example 47, N-[(3S)-5-cyano-1-(4-cyano-2-fluoro-phenyl)sulfonyl-3-(2-methoxy-3-pyridyl)-2-oxo-indolin-3-yl]-4-[1-(oxetan-3-yl)-4-piperidyl]piperazine-1-carboxamide]
– | < 1 | COc1ccc(S(=O)(=O)N2C(=O)[C@@](NC(=O)N3CCC(C4CCN(C5COC5)CC4)CC3)(c3cccnc3OC)c3cc(C#N)ccc32)nc1 [Example 39, N-[(3S)-5-cyano-3-(2-methoxy-3-pyridyl)-1-[(5-methoxy-2-pyridyl)sulfonyl]-2-oxo-indolin-3-yl]-4-[1-(oxetan-3-yl)-4-piperidyl]piperidine-1-carboxamide]

The remaining lines, values behind:

SMILES | Ki(h-V1a)/Ki(h-V1b) [1] | Ki [2] [nM]
CCOc1ncccc1[C@]1(NC(=O)N2CCN(C3CCN(C4COC4)CC3)CC2)C(=O)N(S(=O)(=O)c2cc(F)c(OC)cc2OC)c2ccc(C#N)cc21 [Example 8, (S)—N-(5-cyano-3-(2-ethoxypyridin-3-yl)-1-((5-fluoro-2,4-dimethoxyphenyl)sulfonyl)-2-oxoindolin-3-yl)-4-(1-(oxetan-3-yl)piperidin-4-yl)piperazine-1-carboxamide] | +++ (>75) | –
CCOc1ncccc1[C@]1(NC(=O)N2CCN(C3CCN(CC4COC4)CC3)CC2)C(=O)N(S(=O)(=O)c2ccc(OC)cc2OC)c2ccc(C#N)cc21 [Example 19, (S)—N-(5-cyano-1-((2,4-dimethoxyphenyl)sulfonyl)-3-(2-ethoxypyridin-3-yl)-2-oxoindolin-3-yl)-4-(1-(oxetan-3-ylmethyl)piperidin-4-yl)piperazine-1-carboxamide] | +++ (>75) | 10 to 100
CCOc1ncccc1[C@]1(NC(=O)N2CCN(C3CCN(C4COC4)CC3)CC2)C(=O)N(S(=O)(=O)c2ccc(OC)cc2F)c2ccc(C#N)cc21 [Example 6, (S)—N-(5-cyano-3-(2-ethoxypyridin-3-yl)-1-((2-fluoro-4-methoxyphenyl)sulfonyl)-2-oxoindolin-3-yl)-4-(1-(oxetan-3-yl)piperidin-4-yl)piperazine-1-carboxamide] | +++ (>75) | –
CCOc1ncccc1[C@]1(NC(=O)N2CCC(N3CCN(C4COC4)CC3)CC2)C(=O)N(S(=O)(=O)c2ccc(C#N)cc2)c2ccc(C#N)cc21 [Example 12, (S)—N-(5-cyano-1-((4-cyanophenyl)sulfonyl)-3-(2-ethoxypyridin-3-yl)-2-oxoindolin-3-yl)-4-(4-(oxetan-3-yl)piperazin-1-yl)piperidine-1-carboxamide] | ++ (25-75) | –
CCOc1ncccc1[C@]1(NC(=O)N2CCN(C3CCN(C4COC4)CC3)CC2)C(=O)N(S(=O)(=O)c2ccc(F)cc2)c2ccc(C#N)cc21 [Example 28, N-[(3S)-5-cyano-3-(2-ethoxy-3-pyridyl)-1-(4-fluorophenyl)sulfonyl-2-oxo-indolin-3-yl]-4-[1-(oxetan-3-yl)-4-piperidyl]piperazine-1-carboxamide] | +++ (>75) | 10 to 100
CCOc1ncccc1[C@]1(NC(=O)N2CCC(C3CCN(C4COC4)CC3)CC2)C(=O)N(S(=O)(=O)c2ccc(OC)cc2OC)c2ccc(C#N)cc21 [Example 11, (S)—N-(5-cyano-1-((2,4-dimethoxyphenyl)sulfonyl)-3-(2-ethoxypyridin-3-yl)-2-oxoindolin-3-yl)-1′-(oxetan-3-yl)-[4,4′-bipiperidine]-1-carboxamide] | +++ (>75) | < 1
CCOc1ncccc1[C@]1(NC(=O)N2CCN(C3CCN(C4COC4)CC3)CC2)C(=O)N(S(=O)(=O)c2ccc(OC)cc2OC)c2ccc(Cl)cc21 [Example 10, (S)—N-(5-chloro-1-((2,4-dimethoxyphenyl)sulfonyl)-3-(2-ethoxypyridin-3-yl)-2-oxoindolin-3-yl)-4-(1-(oxetan-3-yl)piperidin-4-yl)piperazine-1-carboxamide] | +++ (>75) | –
CCOc1ncccc1[C@]1(NC(=O)N2CCC(N3C[C@@H]4C[C@H]3CN4C3COC3)CC2)C(=O)N(S(=O)(=O)c2ccc(OC)cc2OC)c2ccc(C#N)cc21 [Example 17, N—((S)-5-cyano-1-((2,4-dimethoxyphenyl)sulfonyl)-3-(2-ethoxypyridin-3-yl)-2-oxoindolin-3-yl)-4-((1S,4S)-5-(oxetan-3-yl)-2,5-diazabicyclo[2.2.1]heptan-2-yl)piperidine-1-carboxamide] | ++ (25-75) | –
CCOc1ncccc1[C@]1(NC(=O)N2CCN(C3CCN(C4COC4)CC3)CC2)C(=O)N(S(=O)(=O)c2ccc(OC)cc2OC)c2ccc(C#N)cc21 [Example 1, (S)—N-(5-cyano-1-((2,4-dimethoxyphenyl)sulfonyl)-3-(2-ethoxypyridin-3-yl)-2-oxoindolin-3-yl)-4-(1-(oxetan-3-yl)piperidin-4-yl)piperazine-1-carboxamide] | +++ (>75) | –
COc1ccc(S(=O)(=O)N2C(=O)C(NC(=O)N3CCN(C4CCN(C5COC5)CC4)CC3)(c3cccnc3OC)c3cc(C#N)ccc32)c(OC)c1 (stereo not shown) [Example 15, N-(5-cyano-1-((2,4-dimethoxyphenyl)sulfonyl)-3-(2-methoxypyridin-3-yl)-2-oxoindolin-3-yl)-4-(1-(oxetan-3-yl)piperidin-4-yl)piperazine-1-carboxamide] | +++ (>75) | –
CCOc1ncccc1[C@]1(NC(=O)N2CCC(N3CCN(C4COC4)CC3)CC2)C(=O)N(S(=O)(=O)c2ccc(OC)cc2)c2ccc(C#N)cc21 [Example 13, (S)—N-(5-cyano-3-(2-ethoxypyridin-3-yl)-1-((4-methoxyphenyl)sulfonyl)-2-oxoindolin-3-yl)-4-(4-(oxetan-3-yl)piperazin-1-yl)piperidine-1-carboxamide] | +++ (>75) | –
CCOc1ncccc1[C@]1(NC(=O)N2CCN(C3CCN(C4COC4)CC3)CC2)C(=O)N(S(=O)(=O)c2ccc(OC)cc2OC)c2cc(F)c(F)cc21 [Example 9, (S)—N-(1-((2,4-dimethoxyphenyl)sulfonyl)-3-(2-ethoxypyridin-3-yl)-5,6-difluoro-2-oxoindolin-3-yl)-4-(1-(oxetan-3-yl)piperidin-4-yl)piperazine-1-carboxamide] | +++ (>75) | –
CCOc1ncccc1[C@]1(NC(=O)N2CCN(C3CCN(C4COC4)CC3)CC2)C(=O)N(S(=O)(=O)c2ccc(OC)c(C)c2C)c2ccc(C#N)cc21 [Example 18, (S)—N-(5-cyano-3-(2-ethoxypyridin-3-yl)-1-((4-methoxy-2,3-dimethylphenyl)sulfonyl)-2-oxoindolin-3-yl)-4-(1-(oxetan-3-yl)piperidin-4-yl)piperazine-1-carboxamide] | + (10-<25) | –
